{"source": "patent US20150005252A1", "about": "“COMBINATION THERAPY FOR THE TREATMENT OF CANCER” (TILTAN PHARMA LTD., priority 2012, published 2015)", "test_system": "Mouse pancreatic-adenocarcinoma cell-line PANC02", "test": "Orthotopic PANC02 pancreatic tumor model in mice, IP treatment, tumors excised and weighed on Day 18", "assay_type": "in vivo", "method": "Total study duration was 18 days (Treatment period: 14 days, i.e. two weekly treatment schedules). Tumour cells inoculation day was registered as “Day 1”. The compositions were administered IP six days per week starting on Day 4.\nTumor Cells: Mouse pancreatic-adenocarcinoma cell-line PANC02 (a kind gift from Dr A. Marten, University of Heidelberg, Germany).\nCB6F1 female mice, 21.1 g average body weight, 10 mice per treatment group.\nFive test groups were conducted, each administered with a different treatment composition and schedule as detailed in Tables 1 and 2 below.\nTreatment Groups were administered with either vehicle alone (Group 1), a combination of TL-118 and Gemcitabine (Groups 2 and 3), Gemcitabine alone 9 Group 4) and TL-118 alone (Group 5).\n• In Groups 2 and 5 the 1st day of TL-118 was Wed. while for Group 3 1st day of TL-118 was Thur. No treatment was given on Sat (see also Table 3 below).\nIn Group 2 the treatment started with TL-118 and Gemcitabine was administered on the following day while in Group 3 the treatment started with Gemcitabine administration then TL-118 initiation on the following day (see Table 3 below).\nThe cells were removed from flasks using trypsin. 60 million (60×10^6) cells were counted and re-suspended in 4.5 ml phosphate buffered saline. Before cell spin-down, cells were strained through cell strainer according to the following procedure: • 1. Strainer was placed on 50 ml tube; • 2. Strainer was washed with 5 ml phosphate buffered saline; • 3. Cells detached from flasks in RPMI growth medium were poured over strainer; • 4. Strainer was washed with 5 ml phosphate buffered saline.\nTumor cells (4×10^5 cells, in 30 μl, per animal) are injected into the pancreas using needle 30 G. Tumor cells inoculation to animals was performed under anesthesia (Ketamine 85 mg/kg & Xylasine 5 mg/kg).\nCompositions were administered IP using needle 27 G. Compositions were administered daily from Day 4 for duration of […] (see Table I). Body weights measurements (twice weekly) were used for dosing volume calculations from recent measurement. […]"}
{"compound": "Nc1ccn([C@@H]2O[C@H](CO)[C@@H](O)C2(F)F)c(=O)n1", "note": "[Gemcitabine, 4-amino-1-(2-deoxy-2,2-difluoro-β-D-erythro-pentofuranosyl)pyrimidin-2(1H)-on]", "values": [{"measurement": "representative tumors found at the end of treatment schedule", "setting": "FIGS. 5A-5E, compared with large tumors in vehicle Group 1", "value": "smaller volume tumors"}, {"measurement": "End Result Effect: tumor size relative to vehicle", "setting": "Table 3, end of study, vehicle: very large tumors", "value": "small tumors relative"}, {"measurement": "percentage of tumor bearing animals", "setting": "end of study (Day 18), CB6F1 female mice, IP, FIG. 1", "value": "about 80%"}]}
